This note sets out measurements from patent publication US11001570B2, “6-amino-quinolinone compounds and derivatives as BCL6 inhibitors” (Boehringer Ingelheim International GmbH, priority 2016, dated 2021).

The structures appear in SMILES notation.

This test concerns the target T1, BCL6::BCOR (Homo sapiens, UniProt P41182, C67R/C84N/C8Q).
T1 construct: BCL6 (amino acids 5 to 129, with the following changes to the natural protein); made in house; host or cells: E. coli
Kind of test: BCL6::BCOR ULight TR-FRET assay. In kind it is binding. In outline:
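Biotin-Avi BCL6 (aa 5–129, C8Q/C67R/C84N; E. coli), 1 nM, preincubated 30 min RT with compound (11-point fivefold series, top 100 μM) in HEPES pH 7.3 buffer; then 100 nM ULight-BCOR peptide plus 0.75 nM streptavidin-Eu added, 240 min RT. TR-FRET read, normalized to DMSO controls with/without BCL6.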
In general terms: In TR-FRET formats the signal depends on donor and acceptor labels being close together.
Regarding `CNC(=O)COc1cc2cc(Nc3nc(N4CCC(C(=O)N(C)C)CC4)ncc3Cl)cc(OC)c2n(C)c1=O` [Compound I-148, 1-[5-chloro-4-({8-methoxy-1-methyl-3-[(methylcarbamoyl)methoxy]-2-oxo-1,2-dihydroquinolin-6-yl}amino)pyrimidin-2-yl]-N,N-dimethylpiperidine-4-carboxamide], the IC50 (as a rule, the midpoint of a concentration-inhibition curve) came out at 3 nM. Next, `CNC(=O)COc1cc2cc(Nc3nc(-n4nc(C)cc4C)ncc3Cl)ccc2n(C)c1=O` [Compound I-149, 2-[(6-{[5-chloro-2-(3,5-dimethyl-1H-pyrazol-1-yl)pyrimidin-4-yl]amino}-1-methyl-2-oxo-1,2-dihydroquinolin-3-yl)oxy]-N-methylacetamide]: 12 nM; `C[C@@H]1C[C@H](C)CN(c2ncc(Cl)c(Nc3ccc4c(c3)cc(SCC(=O)O)c(=O)n4C)n2)C1` [Compound I-150, 2-{[6-({5-chloro-2-[cis-3,5-dimethylpiperidin-1-yl]pyrimidin-4-yl}amino)-1-methyl-2-oxo-1,2-dihydroquinolin-3-yl]sulfanyl}acetic acid]: 85 nM; `CNC(=O)COc1cc2cc(Nc3nc(N4CCC(C(=O)N(C)C)CC4)ncc3Cl)ccc2n(CCCO)c1=O` [Compound I-151, 1-(5-chloro-4-{[1-(3-hydroxypropyl)-3-[(methyl-carbamoyl)methoxy]-2-oxo-1,2-dihydroquinolin-6-yl]amino}pyrimidin-2-yl)-N,N-dimethyl-piperidine-4-carboxamide]: 6 nM. For `CN(C)C(=O)C1CCN(c2ncc(Cl)c(Nc3ccc4c(c3)cc(OCC(=O)O)c(=O)n4C)n2)CC1` [Compound I-152, 2-{[6-({5-chloro-2-[4-(dimethylcarbamoyl)piperidin-1-yl]pyrimidin-4-yl}amino)-1-methyl-2-oxo-1,2-dihydroquinolin-3-yl]oxy}acetic acid] the value was 5 nM; for `Cc1cc(C)n(-c2ncc(Cl)c(Nc3ccc4c(c3)cc(OCC(=O)O)c(=O)n4C)n2)n1` [Compound I-153, 2-[(6-{[5-chloro-2-(3,5-dimethyl-1H-pyrazol-1-yl)pyrimidin-4-yl]amino}-1-methyl-2-oxo-1,2-dihydroquinolin-3-yl)oxy]acetic acid], 11 nM. For `CNC(=O)COc1cc2cc(Nc3nc(N4C[C@H](C)C[C@H](C)C4)ncc3Cl)cnc2n(C)c1=O` [Compound I-155] the value was 9 nM. The molecule `CNC(=O)COc1cc2cc(Nc3nc(N4CCC(C(=O)N(C)C)CC4)ncc3Cl)c(F)cc2n(C)c1=O` [Compound I-156] returned an IC50 of 19 nM. For `CNC(=O)COc1cc2cc(Nc3nc(N4CCC(C(=O)N(C)C)CC4)ncc3Cl)ccc2n(C)c1=O` [Compound I-157] the value was 5 nM; for `CNC(=O)COc1cc2cc(Nc3nc(N4CCC(C(=O)N(C)C)CC4)ncc3Cl)ccc2n(C(C)C)c1=O` [Compound I-158], 6 nM; for `CNC(=O)COc1cc2cc(Nc3nc(N4C[C@H](C)C[C@H](C)C4)ncc3Cl)ccc2n(CCN(C)C)c1=O` [Compound I-159], 85 nM.

`CCn1c(=O)c(OCC(=O)NC)cc2cc(Nc3nc(-n4nc(C)cc4C)ncc3Cl)ccc21` [Compound I-160]: the concentration for half-maximal inhibition (IC50) turned out to be 7 nM. For `CCn1c(=O)c(OCC(=O)NC)cc2cc(Nc3nc(N4CCC(C(=O)N(C)C)CC4)ncc3Cl)ccc21` [Compound I-161] the value was 5 nM. For `CNC(=O)[C@@H](C)Oc1cc2cc(Nc3nc(N4CCC(C(=O)N(C)C)CC4)ncc3Cl)ccc2n(C)c1=O` [Compound I-162] the value was 98 nM. For `CNC(=O)COc1cc2cc(Nc3nc(N4CCC(C(=O)N(C)C)CC4)ncc3Cl)c(OC)cc2n(C)c1=O` [Compound I-163] the value was 60 nM; for `CNC(=O)COc1cc2cc(Nc3nc(N4CCC(C(=O)N(C)C)CC4)ncc3Cl)c(Cl)cc2n(C)c1=O` [Compound I-164], 281 nM. For the molecule `C[C@@H]1C[C@H](C)CN(c2ncc(Cl)c(Nc3ccc4c(c3)cc(/C=C/C(=O)O)c(=O)n4C)n2)C1` [Compound I-165], the IC50 came to 22 nM. Next, `CNC(=O)COc1cc2cc(Nc3nc(-n4nc(C(=O)N5CCN(C)CC5)cc4C)ncc3Cl)ccc2n(C)c1=O` [Compound I-166, 2-{[6-({5-chloro-2-[5-methyl-3-(4-methylpiperazine-1-carbonyl)-1H-pyrazol-1-yl]pyrimidin-4-yl}amino)-1-methyl-2-oxo-1,2-dihydroquinolin-3-yl]oxy}-N-methylacetamide]: 16 nM; `CNC(=O)COc1cc2cc(Nc3nc(N4CCC[C@@H](C(=O)O)C4)ncc3Cl)ccc2n(C)c1=O` [Compound I-167, (3R)-1-[5-chloro-4-({1-methyl-3-[(methylcarbamoyl)methoxy]-2-oxo-1,2-dihydroquinolin-6-yl}-amino)pyrimidin-2-yl]piperidine-3-carboxylic acid]: 4 nM; `CNC(=O)COc1cc2cc(Nc3nc(N4CCC[C@@H](C(=O)N(C)C)C4)ncc3Cl)ccc2n(C)c1=O` [Compound I-168, (3R)-1-[5-chloro-4-({1-methyl-3-[(methylcarbamoyl)methoxy]-2-oxo-1,2-dihydroquinolin-6-yl}amino)pyrimidin-2-yl]-N,N-dimethylpiperidine-3-carboxamide]: 6 nM. `CNC(=O)COc1cc2cc(Nc3nc(N4CCC[C@@H](C(=O)N5CCN(C)CC5)C4)ncc3Cl)ccc2n(C)c1=O` [Compound I-169]: the IC50 is 6 nM. For `CNC(=O)COc1cc2cc(Nc3nc(N4CCC[C@@H](C(=O)N(C)C5CCN(C)CC5)C4)ncc3Cl)ccc2n(C)c1=O` [Compound I-170] the value was 8 nM; for `CN(C)C(=O)COc1cc2cc(Nc3nc(N4CCC(C(=O)N(C)C)CC4)ncc3Cl)ccc2n(C)c1=O` [Compound I-171], 39 nM; for `C[C@@H]1C[C@H](C)CN(c2ncc(Cl)c(Nc3ccc4c(c3)cc(OCP(C)(C)=O)c(=O)n4C)n2)C1` [Compound I-172, 6-({5-chloro-2-[cis-3,5-dimethylpiperidin-1-yl]pyrimidin-4-yl}amino)-3-[(dimethylphosphoryl)-methoxy]-1-methyl-1,2-dihydroquinolin-2-one], 187 nM.

In the case of `C#CCNC(=O)COc1cc2cc(Nc3nc(N4CCC(C(=O)N(C)C)CC4)ncc3Cl)ccc2n(C)c1=O` [Compound I-175], the IC50 was determined as 10 nM.

`C[C@@H]1C[C@H](C)CN(c2ccc(Cl)c(Nc3ccc4c(c3)cc(OCC(=O)O)c(=O)n4C)n2)C1` [Compound I-176, 2-{[6-({3-chloro-6-[cis-3,5-dimethylpiperidin-1-yl]pyridin-2-yl}amino)-1-methyl-2-oxo-1,2-dihydroquinolin-3-yl]oxy}acetic acid] yielded an IC50 of 106 nM. For `CNC(=O)COc1cc2cc(Nc3nc(N4C[C@H](C)C[C@H](C)C4)ccc3Cl)ccc2n(C)c1=O` [Compound I-177, 2-{[6-({3-chloro-6-[cis-3,5-dimethylpiperidin-1-yl]pyridin-2-yl}amino)-1-methyl-2-oxo-1,2-dihydroquinolin-3-yl]oxy}-N-methylacetamide], the concentration for half-maximal inhibition (IC50) was found to be 87 nM. `CNC(=O)COc1cc2cc(Nc3cc(N4C[C@H](C)C[C@H](C)C4)ncc3Cl)ccc2n(C)c1=O` [Compound I-178, 2-{[6-({5-chloro-2-[cis-3,5-dimethylpiperidin-1-yl]pyridin-4-yl}amino)-1-methyl-2-oxo-1,2-dihydroquinolin-3-yl]oxy}-N-methylacetamide] registered a half-maximal inhibitory concentration (IC50) of 22 nM.
